Marks after values point to notes of the source that are not given here.
Experiments:
VEGFR-2 = VEGFR-2 (Homo sapiens, UniProt P35968); assay: In vitro VEGFR-2 kinase inhibition; assay type: biochemical
MDA-231 cells = assay: Cell migration and wound healing assay; assay type: cell-based; settings: 11 μM (0.5 IC50), untreated control 58.95
MDA-MB-231 cells [1] = assay: Apoptosis analysis, Annexin V-FITC/PI flow cytometry; assay type: cell-based
MDA-MB-231 cells [2] = assay: Cell cycle analysis, PI flow cytometry; assay type: cell-based; settings: 21.68 µM, 48 h
BAX = assay: qRT-PCR gene expression, BAX; assay type: cell-based; settings: MDA-231 cells; 21.68 μM; control set to 1; mean ± SEM
Bcl-2 = assay: qRT-PCR gene expression, Bcl-2; assay type: cell-based; settings: MDA-231 cells; 21.68 μM; control set to 1; mean ± SEM
BAX/Bcl-2 ratio = assay type: cell-based; settings: MDA-231 cells; 21.68 μM; control set to 1
caspase-8 = assay: qRT-PCR gene expression, caspase-8; assay type: cell-based; settings: MDA-231 cells; 21.68 μM; control set to 1; mean ± SEM
caspase-9 = assay: qRT-PCR gene expression, caspase-9; assay type: cell-based; settings: MDA-231 cells; 21.68 μM; control set to 1; mean ± SEM

Sequence of VEGFR-2 (P35968 20-1356): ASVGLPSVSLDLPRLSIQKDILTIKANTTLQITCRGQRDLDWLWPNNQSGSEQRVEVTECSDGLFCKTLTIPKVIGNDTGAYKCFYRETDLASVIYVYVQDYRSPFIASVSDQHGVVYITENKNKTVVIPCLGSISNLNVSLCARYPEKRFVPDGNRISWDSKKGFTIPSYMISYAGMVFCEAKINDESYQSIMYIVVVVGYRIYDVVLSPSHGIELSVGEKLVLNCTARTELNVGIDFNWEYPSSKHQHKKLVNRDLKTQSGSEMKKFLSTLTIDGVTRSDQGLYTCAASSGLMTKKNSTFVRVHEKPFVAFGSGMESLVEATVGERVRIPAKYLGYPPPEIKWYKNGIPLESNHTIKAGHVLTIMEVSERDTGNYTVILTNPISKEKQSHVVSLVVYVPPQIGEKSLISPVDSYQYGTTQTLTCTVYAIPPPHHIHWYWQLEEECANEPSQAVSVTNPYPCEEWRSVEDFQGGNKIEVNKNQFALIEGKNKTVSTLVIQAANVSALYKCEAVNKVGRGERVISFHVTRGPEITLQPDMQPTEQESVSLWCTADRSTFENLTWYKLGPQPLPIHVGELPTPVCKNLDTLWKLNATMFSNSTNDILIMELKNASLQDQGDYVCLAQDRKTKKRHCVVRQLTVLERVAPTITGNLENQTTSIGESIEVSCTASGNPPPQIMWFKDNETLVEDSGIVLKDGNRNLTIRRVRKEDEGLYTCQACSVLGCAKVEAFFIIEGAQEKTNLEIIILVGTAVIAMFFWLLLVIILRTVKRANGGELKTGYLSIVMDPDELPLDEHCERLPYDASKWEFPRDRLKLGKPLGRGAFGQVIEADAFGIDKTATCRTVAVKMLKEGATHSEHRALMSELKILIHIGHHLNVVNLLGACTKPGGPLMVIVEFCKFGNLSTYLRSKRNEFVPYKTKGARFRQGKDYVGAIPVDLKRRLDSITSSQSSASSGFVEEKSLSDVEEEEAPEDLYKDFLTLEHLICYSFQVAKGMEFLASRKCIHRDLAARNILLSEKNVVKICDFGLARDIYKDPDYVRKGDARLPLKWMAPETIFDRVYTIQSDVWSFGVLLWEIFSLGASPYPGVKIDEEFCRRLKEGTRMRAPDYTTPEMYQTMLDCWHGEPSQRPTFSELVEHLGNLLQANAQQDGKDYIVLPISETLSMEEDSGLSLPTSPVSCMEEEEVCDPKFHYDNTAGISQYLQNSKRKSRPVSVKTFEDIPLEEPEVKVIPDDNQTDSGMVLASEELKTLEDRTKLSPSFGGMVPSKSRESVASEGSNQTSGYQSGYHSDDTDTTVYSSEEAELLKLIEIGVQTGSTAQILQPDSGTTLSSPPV

## COc1cccc(NC(=O)Nc2ccc(Oc3nc4ccccc4n4cnnc34)cc2)c1 [11d, 1-(4-([1,2,4]Triazolo[4,3-a]quinoxalin-4-yloxy)phenyl)-3-(3-methoxyphenyl)urea]
VEGFR-2
  IC50: 62.3 ± 2.77 nM
MDA-231 cells
  Quantitative closure (%) for scratched assay after 48 h: 27.51%
MDA-MB-231 cells [1]; Homo sapiens, MDA-MB-231, 48 h, read-out: Viable (left bottom)
  viability at 21.68 µM: 20.2%
MDA-MB-231 cells [1]; MDA-MB-231, 21.68 µM, 48 h, untreated 0.32
  Necrosis (left top): 1.91 ^a %
MDA-MB-231 cells [1]; MDA-MB-231, 21.68 µM, 48 h, untreated 0.45
  Apoptosis, Late (right top): 31.49 ^a %
MDA-MB-231 cells [1]; MDA-MB-231, 21.68 µM, 48 h, untreated 3.84
  Apoptosis, Early (right bottom): 46.43 ^a %
MDA-MB-231 cells [2]; untreated 10.59
  Cell cycle distribution (%), % G2/M: 3.74 ^a %
MDA-MB-231 cells [2]; untreated 19.48
  Cell cycle distribution (%), % sub-G1: 15.75%
MDA-MB-231 cells [2]; untreated 24.95
  Cell cycle distribution (%), % S: 16.45 ^a %
MDA-MB-231 cells [2]; untreated 44.98
  Cell cycle distribution (%), % G1: 64.06 ^a %
BAX
  Gene expression (fold change), BAX: 5.48 ± 0.45 ^a fold change
Bcl-2
  Gene expression (fold change), Bcl-2: 0.34 ± 0.01 ^a fold change
BAX/Bcl-2 ratio
  Gene expression (fold change), BAX/Bcl-2 ratio: 16.11 ± 1.01 fold change
caspase-8
  Gene expression (fold change), Caspases-8: 4.15 ± 0.48 ^a fold change
caspase-9
  Gene expression (fold change), Caspases-9: 5.58 ± 0.40 ^a fold change

Source: PMC12013614 (RSC Advances, 2025)
